Results as given in publication PMC10283047, “Targeting β-catenin and PD-L1 simultaneously by a racemic supramolecular peptide for the potent immunotherapy of hepatocellular carcinoma” (Theranostics, 2023).

Test system: RAW264.7 macrophagocytes
Procedure: Besides, we contrastively explored cellular uptakes of BBI, PDP, sBBI and sBBI&PDP into a macrophage cell line RAW264.7 and HCC cell line Hepa1-6. The fluorescence was derived from fluorescein isothiocyanate (FITC), FITC was linked to the amino-terminal of sBBI, and the sBBI with FITC was then combined with PDP to form FITC-sBBI&PDP.
Hepa1-6 cells are seeded in 6-well plates at an appropriate density, approximately 200,000 cells per
well. After cell attachment, 1 mL of drug was labeled with 10 µL of FITC (100:1). Keep away from
light, and co-incubate the drug with the cells for 10 minutes. Digest cells according to normal
procedures. After centrifugation, wash 2-3 times with PBS and resuspend in 150-200 µL PBS for
FACS detection. FITC was incubated with drugs for 30 minutes. Plate with 6 cm confocal laser
dishes, 100,000 cells per well. After cell attachment, FITC-labeled drug was added. Drugs were co-
cultured with cells for 6 h. Cells were washed twice with PBS and cellular uptake observed under a
confocal laser fluorescence microscope.

Substance | Cellular uptake
CHEHEKFEQR-(PEG3)-nyskptdrqyhfrr [PDP] | neither BBI nor PDP peptide showed cellular uptakes
KFERQKILDSQEQLEHRERSLQT -(Hle)-RDIQRML-(2-Nal)-PC [BBI] | neither BBI nor PDP peptide showed cellular uptakes
